Results from PubChem BioAssay AID1259407 (Chemical Carcinogenesis Research Information System (CCRIS), 2018).
Calls of active or inactive are those of the source. No rule for the calls is given here.

System: CCRIS mutagenicity, Ames/micronucleus/aberration tests
Experiment: CCRIS mutagenicity studies
[1] = Test System: AMES SALMONELLA TYPHIMURIUM, Strain/Indicator: TA97, Metabolic Activation: HAMSTER, LIVER, S-9, AROCLOR 1254 (10 OR 30%), Method: PREINCUBATION
[2] = Test System: AMES SALMONELLA TYPHIMURIUM, Strain/Indicator: TA97, Metabolic Activation: NONE, Method: PREINCUBATION
[3] = Test System: AMES SALMONELLA TYPHIMURIUM, Strain/Indicator: TA97, Metabolic Activation: RAT, LIVER, S-9, AROCLOR 1254 (10 OR 30%), Method: PREINCUBATION
[4] = Test System: AMES SALMONELLA TYPHIMURIUM, Strain/Indicator: TA98, Metabolic Activation: HAMSTER, LIVER, S-9, AROCLOR 1254 (10 OR 30%), Method: PREINCUBATION
[5] = Test System: AMES SALMONELLA TYPHIMURIUM, Strain/Indicator: TA98, Metabolic Activation: NONE, Method: PREINCUBATION
[6] = Test System: AMES SALMONELLA TYPHIMURIUM, Strain/Indicator: TA98, Metabolic Activation: RAT, LIVER, S-9, AROCLOR 1254 (10 OR 30%), Method: PREINCUBATION
[7] = Test System: AMES SALMONELLA TYPHIMURIUM, Strain/Indicator: TA100, Metabolic Activation: HAMSTER, LIVER, S-9, AROCLOR 1254 (10 OR 30%), Method: PREINCUBATION
[8] = Test System: AMES SALMONELLA TYPHIMURIUM, Strain/Indicator: TA100, Metabolic Activation: NONE, Method: PREINCUBATION
[9] = Test System: AMES SALMONELLA TYPHIMURIUM, Strain/Indicator: TA100, Metabolic Activation: RAT, LIVER, S-9, AROCLOR 1254 (10 OR 30%), Method: PREINCUBATION
[10] = Test System: AMES SALMONELLA TYPHIMURIUM, Strain/Indicator: TA1535, Metabolic Activation: HAMSTER, LIVER, S-9, AROCLOR 1254 (10 OR 30%), Method: PREINCUBATION
[11] = Test System: AMES SALMONELLA TYPHIMURIUM, Strain/Indicator: TA1535, Metabolic Activation: NONE, Method: PREINCUBATION
[12] = Test System: AMES SALMONELLA TYPHIMURIUM, Strain/Indicator: TA1535, Metabolic Activation: RAT, LIVER, S-9, AROCLOR 1254 (10 OR 30%), Method: PREINCUBATION
[13] = Test System: AMES SALMONELLA TYPHIMURIUM, Strain/Indicator: TA1537, Metabolic Activation: NONE, Method: PREINCUBATION
[14] = Test System: AMES SALMONELLA TYPHIMURIUM, Strain/Indicator: TA100, Metabolic Activation: NONE, Method: STANDARD PLATE
[15] = Test System: AMES SALMONELLA TYPHIMURIUM, Strain/Indicator: TA100, Metabolic Activation: RAT, LIVER, S-9, AROCLOR 1254, Method: STANDARD PLATE
[16] = Test System: AMES SALMONELLA TYPHIMURIUM, Strain/Indicator: TA98, Metabolic Activation: NONE, Method: STANDARD PLATE
[17] = Test System: AMES SALMONELLA TYPHIMURIUM, Strain/Indicator: TA100, Metabolic Activation: RAT, LIVER, S-9, PCB, Method: PREINCUBATION

For `COC(=O)[C@H]1[C@H]2C[C@@H]3c4[nH]c5cc(OC)ccc5c4CCN3C[C@H]2C[C@@H](OC(=O)/C=C/c2cc(OC)c(OC)c(OC)c2)[C@@H]1OC`, the mutagenic call [1] was “inactive; negative”, the mutagenic call [2] was “inactive; negative” and the mutagenic call [3] was “inactive; negative”. For the same molecule, the mutagenic call [4] was “inactive; negative”, the mutagenic call [5] was “inactive; negative” and the mutagenic call [6] was “inactive; negative”. For the same molecule, the mutagenic call [7] was “inactive; negative”, the mutagenic call [8] was “inactive; negative” and the mutagenic call [9] was “inactive; negative”. The mutagenic call [10] was “inactive; negative”, the mutagenic call [11] was “inactive; negative” and the mutagenic call [12] was “inactive; negative”. For the same molecule, the mutagenic call (Test System: AMES SALMONELLA TYPHIMURIUM, Strain/Indicator: TA1537, Metabolic Activation: HAMSTER, LIVER, S-9, AROCLOR 1254 (30%), Method: PREINCUBATION) was “inactive; negative”, the mutagenic call [13] was “inactive; negative” and the mutagenic call (Test System: AMES SALMONELLA TYPHIMURIUM, Strain/Indicator: TA1537, Metabolic Activation: RAT, LIVER, S-9, AROCLOR 1254 (30%), Method: PREINCUBATION) was “inactive; negative”.
For `CCCCN(CC)CC`, the mutagenic call [1] was “inactive; negative”, the mutagenic call [2] was “inactive; negative” and the mutagenic call [3] was “inactive; negative”. The mutagenic call [4] was “inactive; negative”, the mutagenic call [5] was “inactive; negative” and the mutagenic call [6] was “inactive; negative”. For the same molecule, the mutagenic call [7] was “inactive; negative”, the mutagenic call [8] was “inactive; negative” and the mutagenic call [9] was “inactive; negative”. For the same molecule, the mutagenic call [10] was “inactive; negative”, the mutagenic call [11] was “inactive; negative” and the mutagenic call [12] was “inactive; negative”.
With `O=[N+]([O-])c1cnc(CO)n1CCO` the mutagenic call [14] was “active; positive” and the mutagenic call [15] was “active; positive”.
`CC(C)c1c(N)ccc2ccccc12` was tested, and the mutagenic call [16] was “inactive; negative”, the mutagenic call (Test System: AMES SALMONELLA TYPHIMURIUM, Strain/Indicator: TA98, Metabolic Activation: RAT LIVER S-9, AROCLOR, Method: STANDARD PLATE) was “active; positive” and the mutagenic call [14] was “inactive; negative”. The mutagenic call (Test System: AMES SALMONELLA TYPHIMURIUM, Strain/Indicator: TA100, Metabolic Activation: RAT LIVER S-9, AROCLOR, Method: STANDARD PLATE) was “active; positive”.
With `NCCNCCNCCN` the mutagenic call (Test System: AMES SALMONELLA TYPHIMURIUM, Strain/Indicator: TA98, Metabolic Activation: HAMSTER, LIVER, S-9, AROCLOR 1254 (10%), Method: PREINCUBATION) was “active; positive”, the mutagenic call [5] was “active; positive” and the mutagenic call [16] was “active; positive”. For the same molecule, the mutagenic call (Test System: AMES SALMONELLA TYPHIMURIUM, Strain/Indicator: TA98, Metabolic Activation: RAT, LIVER, S-9, AROCLOR 1254 (10%), Method: PREINCUBATION) was “active; positive”, the mutagenic call (Test System: AMES SALMONELLA TYPHIMURIUM, Strain/Indicator: TA98, Metabolic Activation: RAT, LIVER, S-9, PCB, Method: PREINCUBATION) was “active; positive” and the mutagenic call (Test System: AMES SALMONELLA TYPHIMURIUM, Strain/Indicator: TA100, Metabolic Activation: HAMSTER, LIVER, S-9, AROCLOR 1254 (10%), Method: PREINCUBATION) was “active; positive”. For the same molecule, the mutagenic call [8] was “active; positive”, the mutagenic call [14] was “active; positive” and the mutagenic call (Test System: AMES SALMONELLA TYPHIMURIUM, Strain/Indicator: TA100, Metabolic Activation: RAT, LIVER, S-9, AROCLOR 1254 (10%), Method: PREINCUBATION) was “active; positive”. For the same molecule, the mutagenic call [17] was “active; positive”, the mutagenic call (Test System: AMES SALMONELLA TYPHIMURIUM, Strain/Indicator: TA1535, Metabolic Activation: HAMSTER, LIVER, S-9, AROCLOR 1254 (10%), Method: PREINCUBATION) was “active; positive” and the mutagenic call [11] was “active; positive”. For the same molecule, the mutagenic call (Test System: AMES SALMONELLA TYPHIMURIUM, Strain/Indicator: TA1535, Metabolic Activation: NONE, Method: STANDARD PLATE) was “inactive; negative”, the mutagenic call (Test System: AMES SALMONELLA TYPHIMURIUM, Strain/Indicator: TA1535, Metabolic Activation: RAT, LIVER, S-9, AROCLOR 1254 (10%), Method: PREINCUBATION) was “active; positive” and the mutagenic call (Test System: AMES SALMONELLA TYPHIMURIUM, Strain/Indicator: TA1535, Metabolic Activation: RAT, LIVER, S-9, AROCLOR 1254, Method: STANDARD PLATE) was “active; positive”. The mutagenic call (Test System: AMES SALMONELLA TYPHIMURIUM, Strain/Indicator: TA1537, Metabolic Activation: HAMSTER, LIVER, S-9, AROCLOR 1254 (10%), Method: PREINCUBATION) was “active; positive”, the mutagenic call [13] was “active; positive” and the mutagenic call (Test System: AMES SALMONELLA TYPHIMURIUM, Strain/Indicator: TA1537, Metabolic Activation: NONE, Method: STANDARD PLATE) was “active; positive”. For the same molecule, the mutagenic call (Test System: AMES SALMONELLA TYPHIMURIUM, Strain/Indicator: TA1537, Metabolic Activation: RAT, LIVER, S-9, AROCLOR 1254 (10%), Method: PREINCUBATION) was “active; positive”, the mutagenic call (Test System: AMES SALMONELLA TYPHIMURIUM, Strain/Indicator: TA1537, Metabolic Activation: RAT, LIVER, S-9, AROCLOR 1254, Method: STANDARD PLATE) was “inactive; negative” and the mutagenic call (Test System: AMES SALMONELLA TYPHIMURIUM, Strain/Indicator: TA1538, Metabolic Activation: NONE, Method: STANDARD PLATE) was “active; positive”. For the same molecule, the mutagenic call (Test System: AMES SALMONELLA TYPHIMURIUM, Strain/Indicator: TA1538, Metabolic Activation: RAT, LIVER, S-9, AROCLOR 1254, Method: STANDARD PLATE) was “inactive; negative”, the mutagenic call (Test System: CHINESE HAMSTER OVARY, Strain/Indicator: CHO (HGPRT)/6-THIOGUANINE, Metabolic Activation: NONE) was “inactive; negative” and the mutagenic call (Test System: CHINESE HAMSTER OVARY, Strain/Indicator: CHO (HGPRT)/6-THIOGUANINE, Metabolic Activation: RAT, LIVER, S-9, AROCLOR 1254) was “inactive; negative”. The mutagenic call (Test System: UDS RAT HEPATOCYTES, Strain/Indicator: THY INCORP, Metabolic Activation: NONE, Method: SCINTILLATION SPECTROMETRY) was “active; positive”.
In the case of `ClC[C@@H]1CO1`, the mutagenic call [8] is reported as “active; positive”, the mutagenic call [14] is reported as “active; positive” and the mutagenic call [17] is reported as “active; positive”.
For `O=[N+]([O-])/C=C/c1ccc([N+](=O)[O-])o1`, the mutagenic call [5] was “active; positive”.
For `CC(=O)OCc1cccc([N+](=O)[O-])c1`, the mutagenic call [5] was “inactive; negative”, the mutagenic call [8] was “inactive; negative” and the mutagenic call (Test System: AMES SALMONELLA TYPHIMURIUM, Strain/Indicator: TA100, Metabolic Activation: RAT, LIVER, S-9, AROCLOR 1254, Method: PREINCUBATION) was “inactive; negative”.
With `O=C(/C=C/c1ccc([N+](=O)[O-])cc1)c1ccc([N+](=O)[O-])cc1` the mutagenic call [16] was “active; positive”, the mutagenic call (Test System: AMES SALMONELLA TYPHIMURIUM, Strain/Indicator: TA98, Metabolic Activation: RAT, LIVER, S-9, AROCLOR 1254, Method: STANDARD PLATE) was “inactive; negative” and the mutagenic call [14] was “inactive; negative”. For the same molecule, the mutagenic call [15] was “inactive; negative”.
